Reference: patent US12532889B2, “Herbicidal compositions comprising glufosinate” (BASF SE, priority 2023, dated 2026)

Experiments:
Assay in all cases: Post-emergence application in field trials (Example A)
Assay type in all cases: in vivo
[1] = test system: SETVE (Setaria verticillata); conditions: 42 DAT; B-6 252 g ai/ha; growth stage 21-23; height 8-16 cm
Procedure, shortened: (§1)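 Percent weed damage (0 = none, 100 = complete destruction), scored against untreated controls at the given DAT, is reported for solo and combined applications. Weeds, naturally occurring or seeded on field plots, were treated after emergence. Colby's formula supplied the additive expectation.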

[2] = test system: PASSC (Paspalum scrobiculatum); conditions: Table 5.2, A-1 25, B-6 252 g ai/ha, 21 DAT, water 450 l/ha
Procedure, shortened: as §1

[3] = test system: AMASP (Amaranthus spinosus); conditions: Table 5.5; AMASP growth stage 72; A-1 25, B-6 252 g ai/ha; 28 DAT; water 400 l/ha
Procedure, shortened: as §1

[4] = test system: HORVS (Hordeum vulgare (spring barley)); conditions: Table 3.1, HORVS volunteer barley, growth stage 22-24, height 32-35 cm, 28 DAT, water 100 l/ha
Procedure, shortened: as §1

CNDSS (Conyza sp.) = conditions: Table 1.5; CNDSS growth stage 26-59, height 15-55 cm; A-1 50, B-2 600 g ai/ha; 14 DAT; water 200 l/ha
Procedure, shortened: as §1

GALAP (Galium aparine) = conditions: Table 3.1; GALAP growth stage 11-16, height 2-20 cm; A-1 18, B-2 500 g ai/ha; 28 DAT; water 100 l/ha
Procedure, shortened: as §1

CYPIR (Cyperus iria) = conditions: Table 2.1, CYPIR growth stage 13-14, height 3-5 cm, 14 DAT, water 300 l/ha
Procedure, shortened: as §1

BIDPI (Bidens pilosa) = conditions: Table 1.14; BIDPI height 20-45 cm; A-1 50, B-2 400 g ai/ha; 21 DAT; water 100 l/ha
Procedure, shortened: as §1

[5] = test system: AMAPA (Amaranthus palmeri); conditions: Table 1.27, AMAPA height 30 cm, 21 DAT, water 200 l/ha
Procedure, shortened: as §1

[6] = test system: CYPES (Cyperus esculentus); conditions: 21 DAT, water 140 l/ha
Procedure, shortened: as §1

ELEIN (Eleusine indica) = test system: ELEIN (Eleusine indica)
Protocol: (§2) In the examples below, using the method of S. R. Colby (1967) “Calculating synergistic and antagonistic responses of herbicide combinations”, Weeds 15, p. 22ff., the value E, which is expected if the activity of the individual active compounds is only additive, was calculated:
(§3) [formula] • where • X=percent activity using active herbicide A at an application rate a; • Y=percent activity using active herbicide B (e.g. glufosinate) at an application rate b; • E=expected activity (in %) by A+B at application rates a+b.
(§4) If the value found experimentally is higher than the value E calculated according to Colby, a synergistic effect is present.
(§5) On field test sites, natural weed infestation or seeded weeds were treated post-emergence of the weeds.
(§6) In the field trials, the weeds were treated as indicated below.
(§7) In the following experiments, the herbicidal activity for the individual herbicidal compositions (solo and mixture applications) was assessed at the indicated days after treatment (DAT). The assessments for the damage on undesired weeds caused by the composition was carried out using a scale from 0 to 100%, compared to the untreated control plants. Here, 0 means no damage and 100 means complete destruction of the plants.
(§8) Post-emergence application of Herbicide A-1 (A-1) and glufosinate ammonium (B-2) in Field Trials:
(§9) Herbicide A-1 (50 g/l), glufosinate ammonium (200 g/l) and optional herbicide C were, together with addition of 0.5% v/v MSO (methylated seed oil) as adjuvant, formulated in water as distribution medium as indicated and sprayed with commercial flat fan nozzles.

[7] = test system: DIGIN = TRCIN (Digitaria insularis)
Protocol: as §2, §3, §4, §5, §6, §7, §8, §9

[8] = test system: SPCHI (Spermacoce hispida); conditions: Table 1.2; SPCHI height 25 cm; B-2 solo 400 g ai/ha; 14 DAT; water volume 100 l/ha; 0.5% v/v MSO
Protocol: as §2, §3, §4, §5, §6, §7, §8, §9

EPHHI (Euphorbia hirta) = conditions: Table 1.2; EPHHI height 25 cm; B-2 solo 400 g ai/ha; 14 DAT; water volume 100 l/ha; 0.5% v/v MSO
Protocol: as §2, §3, §4, §5, §6, §7, §8, §9

[9] = test system: CYPDI (Cyperus difformis); conditions: CYPDI height 25 cm
Protocol: as §2, §3, §4, §5, §6, §7, §8, §9

CP(=O)(O)CC[C@H](N)C(=O)O.N [B-6, glufosinate-P-ammonium]
% Herbicidal activity [1]: 60%
% herbicidal activity [1]: 35%
% herbicidal activity [2]: 27%
% herbicidal activity [3]: 84%

CP(=O)(O)CCC(N)C(=O)O (stereo not shown) [B-2, glufosinate-ammonium]
% herbicidal activity ([4]; A-1 12.5, B-2 500 g ai/ha): 15%
% herbicidal activity ([4]; A-1 18, B-2 500 g ai/ha): 15%
% herbicidal activity (CNDSS (Conyza sp.)): 90%
% herbicidal activity (GALAP (Galium aparine)): 27%
% herbicidal activity (CYPIR (Cyperus iria); A-1 12.5, B-2 500 g ai/ha): 77%
% herbicidal activity (CYPIR (Cyperus iria); A-1 25, B-2 500 g ai/ha): 77%
% herbicidal activity (BIDPI (Bidens pilosa)): 55%
% herbicidal activity ([5]; A-1 12.5, B-2 400 g ai/ha): 20%
% herbicidal activity ([5]; A-1 25, B-2 400 g ai/ha): 20%
% herbicidal activity ([6]; Table 4.2, A-1 25, B-2 655 g ai/ha): 18%
% herbicidal activity ([6]; Table 4.2, A-1 50, B-2 655 g ai/ha): 18%
% herbicidal activity (ELEIN (Eleusine indica); Table 1.10, ELEIN growth stage 23-25, height 3-5 cm, A-1 25, B-2 400 g ai/ha, 20 DAT, water 200 l/ha): 35%
% herbicidal activity (ELEIN (Eleusine indica); Table 1.1, ELEIN growth stage 24, B-2 solo 400 g ai/ha, 14 DAT, water volume 100 l/ha, 0.5% v/v MSO): 12%
% herbicidal activity (ELEIN (Eleusine indica); Table 1.14, ELEIN growth stage 24, A-1 25, B-2 400 g ai/ha, 21 DAT, water 100 l/ha): 0%
% herbicidal activity (ELEIN (Eleusine indica); Table 1.15, ELEIN height 25 cm, A-1 25, B-2 400 g ai/ha, 21 DAT, water 100 l/ha): 10%
% herbicidal activity (ELEIN (Eleusine indica); Table 1.15, ELEIN height 25 cm, A-1 50, B-2 400 g ai/ha, 21 DAT, water 100 l/ha): 10%
% herbicidal activity (ELEIN (Eleusine indica); Table 1.18, ELEIN growth stage 24, A-1 25, B-2 400 g ai/ha, 21 DAT, water 200 l/ha): 0%
% herbicidal activity (ELEIN (Eleusine indica); Table 1.18, ELEIN growth stage 24, A-1 50, B-2 400 g ai/ha, 21 DAT, water 200 l/ha): 0%
% herbicidal activity (ELEIN (Eleusine indica); Table 1.21, ELEIN growth stage 24, A-1 25, B-2 400 g ai/ha, 21 DAT, water 200 l/ha): 0%
% herbicidal activity (ELEIN (Eleusine indica); Table 1.21, ELEIN growth stage 24, A-1 50, B-2 400 g ai/ha, 21 DAT, water 200 l/ha): 0%
% herbicidal activity (ELEIN (Eleusine indica); Table 1.4, ELEIN growth stage 24, A-1 50, B-2 400 g ai/ha, 14 DAT, water 200 l/ha): 18%
% herbicidal activity (ELEIN (Eleusine indica); Table 1.9, ELEIN growth stage 23-25, height 3-5 cm, A-1 25, B-2 400 g ai/ha, 20 DAT, water 100 l/ha): 20%
% herbicidal activity ([7]; Table 1.13, DIGIN height 20-30 cm, A-1 50, B-2 400 g ai/ha, 21 DAT, water 100 l/ha): 20%
% herbicidal activity ([7]; Table 1.17, DIGIN height 20-30 cm, A-1 50, B-2 400 g ai/ha, 21 DAT, water 200 l/ha): 30%
% herbicidal activity ([7]; Table 1.19, DIGIN height 20-30 cm, A-1 50, B-2 400 g ai/ha, 21 DAT, water 200 l/ha): 30%
% herbicidal activity ([7]; Table 1.20, DIGIN height 60-80 cm, A-1 50, B-2 400 g ai/ha, 21 DAT, water 200 l/ha): 57%
% herbicidal activity ([7]; Table 1.22, DIGIN in tillering stage, height 5-15 cm, A-1 50, B-2 400 g ai/ha, 21 DAT, water 200 l/ha): 35%
% herbicidal activity ([7]; Table 1.22, DIGIN in tillering stage, height 5-15 cm, A-1 50, B-2 600 g ai/ha, 21 DAT, water 200 l/ha): 70%
% herbicidal activity ([7]; Table 1.23, DIGIN growth stage 16-18, height 15-25 cm, A-1 50, B-2 400 g ai/ha, 21 DAT, water 200 l/ha): 55%
% herbicidal activity ([7]; Table 1.23, DIGIN growth stage 16-18, height 15-25 cm, A-1 50, B-2 600 g ai/ha, 21 DAT, water 200 l/ha): 65%
% herbicidal activity ([7]; Table 1.24, DIGIN growth stage 67, height 100 cm, A-1 50, B-2 400 g ai/ha, 21 DAT, water 200 l/ha): 17%
% herbicidal activity ([7]; Table 1.24, DIGIN growth stage 67, height 100 cm, A-1 50, B-2 600 g ai/ha, 21 DAT, water 200 l/ha): 37%
% herbicidal activity ([7]; Table 1.25, DIGIN in tillering stage, height 8-20 cm, A-1 50, B-2 400 g ai/ha, 21 DAT, water 200 l/ha): 25%
% herbicidal activity ([7]; Table 1.25, DIGIN in tillering stage, height 8-20 cm, A-1 50, B-2 600 g ai/ha, 21 DAT, water 200 l/ha): 43%
% herbicidal activity ([7]; Table 1.26, DIGIN in tillering stage, height 50-70 cm, A-1 50, B-2 400 g ai/ha, 21 DAT, water 200 l/ha): 15%
% herbicidal activity ([7]; Table 1.26, DIGIN in tillering stage, height 50-70 cm, A-1 50, B-2 600 g ai/ha, 21 DAT, water 200 l/ha): 15%
% herbicidal activity ([7]; Table 1.3, DIGIN height 60-80 cm, A-1 25, B-2 400 g ai/ha, 14 DAT, water 200 l/ha): 68%
% herbicidal activity ([7]; Table 1.3, DIGIN height 60-80 cm, A-1 50, B-2 400 g ai/ha, 14 DAT, water 200 l/ha): 68%
% herbicidal activity ([7]; Table 1.5, DIGIN growth stage 16-18, height 15-25 cm, A-1 50, B-2 400 g ai/ha, 14 DAT, water 200 l/ha): 60%
% herbicidal activity ([7]; Table 1.5, DIGIN growth stage 16-18, height 15-25 cm, A-1 50, B-2 600 g ai/ha, 14 DAT, water 200 l/ha): 70%
% herbicidal activity ([7]; Table 1.7, DIGIN height 50-70 cm, tillering stage, B-2 solo 600 g ai/ha, 14 DAT, water volume 200 l/ha, 0.5% v/v MSO): 17%
% herbicidal activity [8]: 20%
% herbicidal activity (EPHHI (Euphorbia hirta)): 20%
% herbicidal activity ([9]; Table 1.15, A-1 25, B-2 400 g ai/ha, 21 DAT, water 100 l/ha): 10%
% herbicidal activity ([9]; Table 1.2, B-2 solo 400 g ai/ha, 14 DAT, water volume 100 l/ha, 0.5% v/v MSO): 20%
